Biological target: T1, KRAS G12D::SOS1 binding (Homo sapiens, UniProt Q07889)
T1 construct: purchased Cisbio 63ADK000CB21PEH
T1 sequence (Q07889 1-1333): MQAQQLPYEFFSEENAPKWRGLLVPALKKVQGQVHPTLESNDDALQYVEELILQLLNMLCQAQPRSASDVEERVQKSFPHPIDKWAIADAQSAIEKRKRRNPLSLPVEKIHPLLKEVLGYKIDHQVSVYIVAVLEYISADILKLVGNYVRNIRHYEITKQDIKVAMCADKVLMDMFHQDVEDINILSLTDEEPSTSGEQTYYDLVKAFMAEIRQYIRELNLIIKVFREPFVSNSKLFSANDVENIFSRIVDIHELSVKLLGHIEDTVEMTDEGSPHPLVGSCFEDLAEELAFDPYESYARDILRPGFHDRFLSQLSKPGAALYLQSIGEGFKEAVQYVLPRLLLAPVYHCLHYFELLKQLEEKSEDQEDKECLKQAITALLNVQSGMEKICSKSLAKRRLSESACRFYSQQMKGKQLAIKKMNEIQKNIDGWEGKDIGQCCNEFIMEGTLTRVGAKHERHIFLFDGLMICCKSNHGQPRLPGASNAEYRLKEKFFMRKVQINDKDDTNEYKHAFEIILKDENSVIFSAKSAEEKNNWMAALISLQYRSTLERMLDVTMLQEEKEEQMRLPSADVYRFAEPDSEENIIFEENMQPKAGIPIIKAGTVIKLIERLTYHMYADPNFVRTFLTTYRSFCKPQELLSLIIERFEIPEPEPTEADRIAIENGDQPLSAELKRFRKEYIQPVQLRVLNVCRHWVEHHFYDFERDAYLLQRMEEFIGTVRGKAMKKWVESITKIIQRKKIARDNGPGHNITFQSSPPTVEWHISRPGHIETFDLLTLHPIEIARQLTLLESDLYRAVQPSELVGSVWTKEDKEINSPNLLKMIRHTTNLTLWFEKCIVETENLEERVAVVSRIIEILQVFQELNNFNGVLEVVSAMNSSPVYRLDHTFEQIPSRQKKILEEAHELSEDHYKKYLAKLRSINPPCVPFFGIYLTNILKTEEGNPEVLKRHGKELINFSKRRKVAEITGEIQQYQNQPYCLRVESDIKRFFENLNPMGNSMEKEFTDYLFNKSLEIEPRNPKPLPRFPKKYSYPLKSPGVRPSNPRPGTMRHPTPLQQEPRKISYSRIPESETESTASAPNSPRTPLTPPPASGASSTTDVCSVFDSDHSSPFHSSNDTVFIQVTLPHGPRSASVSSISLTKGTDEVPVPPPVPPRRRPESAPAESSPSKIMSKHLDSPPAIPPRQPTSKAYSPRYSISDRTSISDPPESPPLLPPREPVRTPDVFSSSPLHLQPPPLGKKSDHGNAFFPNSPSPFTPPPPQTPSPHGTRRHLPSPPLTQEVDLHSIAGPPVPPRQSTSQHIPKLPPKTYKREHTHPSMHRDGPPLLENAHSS
Assay: KRAS G12D::SOS1 binding inhibition (KRAS-G12D/SOS1 binding assay kit, Cisbio)
Details: GTP 10 µM
Method: The inhibitory effect of the compounds of the present invention on KRAS G12D:: SOS 1 binding was assessed using KRAS-G12D/SOS1 BINDING ASSAY KITS (Cisbio, Cat. No. 63ADK000CB21PEH).
The test compound (10 mM stock solution) was diluted […] to 0.1 mM with 100% DMSO and diluted at a ratio of 1:3 in a 384-well dilution plate for 11 concentrations. 0.1 µL of the gradiently-diluted compound solution was transferred to a 384-well plate using Echo. 2 replicate wells were set for each compound. The solution was centrifuged at 1000 rpm/min for 1 min. 5 µL of 4X KRAS G12D (final concentration 1X) and a GTP solution (final concentration 10 µM, sigma, Cat. No. V900868) were transferred to the 384-well reaction plate. The mixture was centrifuged at 1000 rpm/min for 1 min and incubated at 25 °C for 15 min. 5 µL of a 4X SOS1 solution (final concentration 1X) was transferred to the 384-well reaction plate. The solution was centrifuged at 1000 rpm/min for 1 min and incubated at 25 °C for 45 min. The final concentrations of BAY-293 compound were 10, 3.33, 1.11, 0.37, 0.12, 0.04, 0.014, 0.0046, 0.0015, 0.0005, 0.00017, and 0 µM. The final concentrations of the test compound were 10, 3.33, 1.11, 0.37, 0.12, 0.04, 0.014, 0.0046, 0.0015, 0.0005, 0.00017, and 0 µM. The final concentrations of DMSO were all 0.5%. 10 µL of a 2X assay reagent solution was transferred to the 384-well reaction plate. The solution was centrifuged at 1000 rpm/min for 1 min and incubated at 4 °C for 180 min. An Envision multifunctional microplate reader was used to read at an excitation wavelength of […] and an emission wavelength of 615 nm. The signal intensity of 665/615 ratio was used to characterize the degree of enzyme activity. Data processing: compound IC50 was fitted by Graphpad Prism 8 nonlinear regression equation: Negative control: DMSO
IC50 (half maximal inhibitory concentration) of the compound was obtained using the following nonlinear fitting formula: Y = Bottom + (Top−Bottom)/(1+10^(∧)((LogIC50−X)*HillSlope)) [formula] • X: log value of the concentration of the test compound • Y: inhibition percentage
Bottom is the minimum inhibition percentage, Top is the maximum inhibition percentage, and HillSlope is the Hill slope.

| SMILES | IC50 [nM] |
| --- | --- |
| Cc1nc(N[C@H](C)c2cccc(C(F)F)c2F)c2cn(C3(CF)CC3)c(=O)c(N3CCOC[C@@H]3C)c2n1 [Example 40, 4-(((R)-1-(3-(difluoromethyl)-2-fluorophenyl)ethyl)amino)-6-(1-(fluoromethyl)cyclopropyl)-2-methyl-8-((S)-3-methylmorpholine)pyrido[4,3-d]pyrimidine-7(6H)-one] | 3.84 |
| [2H][C@](C)(Nc1nc(C)nc2c(N3CCOCC3)c(=O)n(C3(CF)CC3)cc12)c1cccc(C(F)F)c1F [Example 55, (R)-4-((1-(3-(difluoromethyl)-2-fluorophenyl)ethyl-1-d)amino)-6-(1-(fluoromethyl)cyclopropyl)-2-methyl-8-morpholinylpyrido[4,3-d]pyrimidine-7(6H)-one] | 6.3 |

Other lines, results leading:

| IC50 [nM] | SMILES |
| --- | --- |
| 6.55 | Cc1nc(N[C@H](C)c2cccc(C(F)F)c2F)c2cn(C3(CF)CC3)c(=O)c(N3CCOCC3)c2n1 [Example 34, (R)-4-((1-(3-(difluoromethyl)-2-fluorophenyl)ethyl)amino)-6-(1-(fluoromethyl)cyclopropyl)-2-methyl-8-morpholinylpyrido[4,3-d]pyrimidine-7(6H)-one] |
| 4.17 | [2H]C([2H])([2H])Oc1c(=O)n(C2(CF)CC2)cc2c(N[C@H](C)c3cccc(C(F)F)c3F)nc(C)nc12 [Example 23, (R)-4-((1-(3-(difluoromethyl)-2-fluorophenyl)ethyl)amino)-6-(1-(fluoromethyl)cyclopropyl)-8-(methoxy-d3)-2-methylpyrido[4,3-d]pyrimidine-7(6H)-one] |
| 7.46 | COc1c(=O)n(N2CCOCC2)cc2c(N[C@H](C)c3cccc(C(F)F)c3F)nc(C)nc12 [Example 20, (R)-4-((1-(3-(difluoromethyl)-2-fluorophenyl)ethyl)amino)-8-methoxy-2-methyl-6-morpholinepyrido[4,3-d]pyrimidine-7(6H)-one] |

Source: patent EP4417607A1, “HETEROCYCLIC COMPOUND AS SOS1 INHIBITOR AND USES THEREOF” (Nanjing Zaiming Pharmaceutical Co., Ltd., priority 2021, dated 2023)
